# According to patent US10125134B2 (Mirati Therapeutics, Inc., priority 2016, dated 2018):
# Where two headings read alike, the source gives them in different places.
# Tests used:
# KRas G12C = KRas G12C (Homo sapiens, UniProt P01116, C118S/C51S/C80L/G12C); assay: KRas G12C Modification Assay (LCMS detection of covalent adduct); format: binding; settings: normalized percent of control; tested at 5 μM concentration for 3 hours
# How it was run: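 Covalent modification was read by reverse-phase LC/MS of intact protein after compound exposure, each reaction stopped at its time point with 25 mM acetic acid. Unmodified-protein signal, taken as percent of total, was normalised to untreated protein and reported as POC.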
# [1] = tested on: NCI-H358 cells (express KRas G12C), Phospho-ERK; assay: Cellular inhibition of KRas G12C: Phospho-ERK in NCI-H358 cells; format: cell-based; settings: Homo sapiens, pERK(Thr202/Tyr204) normalized with GAPDH, NCI-H358 cells, 3 hours, read-out: IC50
# How it was run: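 IC50 derived by 4-parameter fit of GAPDH-normalized pERK(Thr202/Tyr204) signal, as percent of DMSO control. Signal came from in-cell immunodetection with infrared secondaries after 3 h compound exposure of KRas G12C NCI-H358 cells at 0.5% DMSO.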
Compound,POC (KRas G12C),"IC50 ([1]; NCI-H358, 3 h) [nM]",IC50 [1] [nM]
"C=CC(=O)N1CCN(c2nc(OCCN3CCCC[C@H]3C)nc3c2CCN(c2cc(O)cc4ccccc24)C3)CC1 [Example 97, (R)-1-(4-(7-(3-hydroxynaphthalen-1-yl)-2-(2-(2-methylpiperidin-1-yl)ethoxy)-5,6,7,8-tetrahydropyrido[3,4-d]pyrimidin-4-yl)piperazin-1-yl)prop-2-en-1-one]",C (“C”>50% POC),0.1 to 1000,–
"C=CC(=O)N1CCN(c2nc(OCCN3CCC[C@H](OC)C3)nc3c2CCN(c2cc(O)cc4ccccc24)C3)CC1 [Example 98, (S)-1-(4-(7-(3-hydroxynaphthalen-1-yl)-2-(2-(3-methoxypiperidin-1-yl)ethoxy)-5,6,7,8-tetrahydropyrido[3,4-d]pyrimidin-4-yl)piperazin-1-yl)prop-2-en-1-one]",C (“C”>50% POC),> 1000,–
"C=CC(=O)N1CCN(c2nc(OCCN3CCC[C@@H](OC)C3)nc3c2CCN(c2cc(O)cc4ccccc24)C3)CC1 [Example 99, (R)-1-(4-(7-(3-hydroxynaphthalen-1-yl)-2-(2-(3-methoxypiperidin-1-yl)ethoxy)-5,6,7,8-tetrahydropyrido[3,4-d]pyrimidin-4-yl)piperazin-1-yl)prop-2-en-1-one]",C (“C”>50% POC),> 1000,–
"C=CC(=O)N1CCN(c2nc(OC3CCN(C4CC4)CC3)nc3c2CCN(c2cc(O)cc4ccccc24)C3)CC1 [Example 100, 1-(4-(2-((1-cyclopropylpiperidin-4-yl)oxy)-7-(3-hydroxynaphthalen-1-yl)-5,6,7,8-tetrahydropyrido[3,4-d]pyrimidin-4-yl)piperazin-1-yl)prop-2-en-1-one]",C (“C”>50% POC),> 1000,–
"C=CC(=O)N1CCN(c2nc(OCCCN3CCCOCC3)nc3c2CCN(c2cc(O)cc4ccccc24)C3)CC1 [Example 101, 1-(4-(2-(3-(1,4-oxazepan-4-yl)propoxy)-7-(3-hydroxynaphthalen-1-yl)-5,6,7,8-tetrahydropyrido[3,4-d]pyrimidin-4-yl)piperazin-1-yl)prop-2-en-1-one]",C (“C”>50% POC),0.1 to 1000,–
C=CC(=O)N1CCN(c2nc(OCCN(CC)CC)nc3c2CCN(c2cc(O)cc4ccccc24)C3)CC1 [Example 102],C (“C”>50% POC),0.1 to 1000,–
"C=CC(=O)N1CCN(c2nc(OCC3CCN(CCOC)C3)nc3c2CCN(c2cc(O)cc4ccccc24)C3)CC1 (stereo not drawn) [Example 103, 1-(4-(7-(3-hydroxynaphthalen-1-yl)-2-((1-(2-methoxyethyl)pyrrolidin-3-yl)methoxy)-5,6,7,8-tetrahydropyrido[3,4-d]pyrimidin-4-yl)piperazin-1-yl)prop-2-en-1-one]",C (“C”>50% POC),0.1 to 1000,–
"C=CC(=O)N1CCN(c2nc(OCCCN3C[C@@H]4C[C@H]3CO4)nc3c2CCN(c2cc(O)cc4ccccc24)C3)CC1 [Example 104, 1-(4-(2-(3-((1 S,4S)-2-oxa-5-azabicyclo[2.2.1]heptan-5-yl)propoxy)-7-(3-hydroxynaphthalen-1-yl)-5,6,7,8-tetrahydropyrido[3,4-d]pyrimidin-4-yl)piperazin-1-yl)prop-2-en-1-one]",C (“C”>50% POC),0.1 to 1000,–
"C=CC(=O)N1CCN(c2nc(OCCCN3CCOCC3)nc3c2CCN(c2cc(O)ccc2C)C3)CC1 [Example 105, 1-(4-(7-(5-hydroxy-2-methylphenyl)-2-(3-morpholinopropoxy)-5,6,7,8-tetrahydropyrido[3,4-d]pyrimidin-4-yl)piperazin-1-yl)prop-2-en-1-one]",B (“B”>25% POC−≤50% POC),–,> 1000
"C=CC(=O)N1CCN(c2nc(OCCCN3CCOCC3)nc3c2CCN(c2ccc(O)cc2OC(F)(F)F)C3)CC1 [Example 106, 1-(4-(7-(4-hydroxy-2-(trifluoromethoxy)phenyl)-2-(3-morpholinopropoxy)-5,6,7,8-tetrahydropyrido[3,4-d]pyrimidin-4-yl)piperazin-1-yl)prop-2-en-1-one]",A (“A”≤25% POC),–,> 1000
"C=CC(=O)N1CCN(c2nc(OCCN(C)CCOC)nc3c2CCN(c2cc(O)cc4ccccc24)C3)CC1 [Example 107, 1-(4-(7-(3-hydroxynaphthalen-1-yl)-2-(2-((2-methoxyethyl)(methyl)amino)ethoxy)-5,6,7,8-tetrahydropyrido[3,4-d]pyrimidin-4-yl)piperazin-1-yl)prop-2-en-1-one]",C (“C”>50% POC),> 1000,–
"C=CC(=O)N1CCN(c2nc(OCCN3CCC(OC)CC3)nc3c2CCN(c2cc(O)cc4ccccc24)C3)CC1 [Example 108, 1-(4-(7-(3-hydroxynaphthalen-1-yl)-2-(2-(4-methoxypiperidin-1-yl)ethoxy)-5,6,7,8-tetrahydropyrido[3,4-d]pyrimidin-4-yl)piperazin-1-yl)prop-2-en-1-one]",C (“C”>50% POC),0.1 to 1000,–
"C=CC(=O)N1CCN(c2nc(OCCN3CCC(F)(F)CC3)nc3c2CCN(c2cc(O)cc4ccccc24)C3)CC1 [Example 109, 1-(4-(2-(2-(4,4-difluoropiperidin-1-yl)ethoxy)-7-(3-hydroxynaphthalen-1-yl)-5,6,7,8-tetrahydropyrido[3,4-d]pyrimidin-4-yl)piperazin-1-yl)prop-2-en-1-one]",C (“C”>50% POC),> 1000,–
"C=CC(=O)N1CCN(c2nc(OC[C@@H]3CCN(C)C3)nc3c2CCN(c2cc(O)cc4ccccc24)C3)CC1 [Example 110, (R)-1-(4-(7-(3-hydroxynaphthalen-1-yl)-2-((1-methylpyrrolidin-3-yl)methoxy)-5,6,7,8-tetrahydropyrido[3,4-d]pyrimidin-4-yl)piperazin-1-yl)prop-2-en-1-one]",C (“C”>50% POC),0.1 to 1000,–
"C=CC(=O)N1CCN(c2nc(OCCN3CCC[C@H](F)C3)nc3c2CCN(c2cc(O)cc4ccccc24)C3)CC1 [Example 111, (S)-1-(4-(2-(2-(3-fluoropiperidin-1-yl)ethoxy)-7-(3-hydroxynaphthalen-1-yl)-5,6,7,8-tetrahydropyrido[3,4-d]pyrimidin-4-yl)piperazin-1-yl)prop-2-en-1-one]",C (“C”>50% POC),0.1 to 1000,–
"C=CC(=O)N1CCN(c2nc(OCCCN3CCOCC3)nc3c2CCN(c2cc(C(F)F)cc4ccccc24)C3)CC1 [Example 112, 1-(4-(7-(3-(difluoromethyl)naphthalen-1-yl)-2-(3-morpholinopropoxy)-5,6,7,8-tetrahydropyrido[3,4-d]pyrimidin-4-yl)piperazin-1-yl)prop-2-en-1-one]",A (“A”≤25% POC),–,> 1000

# Continued, in another order:
POC (KRas G12C),Compound,"IC50 ([1]; NCI-H358, 3 h) [nM]",IC50 [1] [nM]
C (“C”>50% POC),"C=CC(=O)N1CCN(c2ncnc3c2CC(=O)N(c2cc(O)cc4ccccc24)C3)CC1 [Example 113, 4-(4-acryloylpiperazin-1-yl)-7-(3-hydroxynaphthalen-1-yl)-7,8-dihydropyrido[3,4-d]pyrimidin-6(5H)-one]",–,> 1000
B (“B”>25% POC−≤50% POC),"C=CC(=O)N1CC2(C1)CN(c1ncnc3c1CC(=O)N(c1cc(O)cc4ccccc14)C3)C2 [Example 114, 4-(6-acryloyl-2,6-diazaspiro[3.3]heptan-2-yl)-7-(3-hydroxynaphthalen-1-yl)-7,8-dihydropyrido[3,4-d]pyrimidin-6(5H)-one]",–,> 1000
C (“C”>50% POC),"C=CC(=O)N1CCN(c2nc(O[C@H](C)CN(C)C)nc3c2CCN(c2cc(O)cc4ccccc24)C3)[C@@H](C)C1 [Example 115, 1-((S)-4-(2-(((R)-1-(dimethylamino)propan-2-yl)oxy)-7-(3-hydroxynaphthalen-1-yl)-5,6,7,8-tetrahydropyrido[3,4-d]pyrimidin-4-yl)-3-methylpiperazin-1-yl)prop-2-en-1-one]",–,0.1 to 1000
C (“C”>50% POC),"C=CC(=O)N1CCN(c2nc(OCCN(C)C)nc3c2CCN(c2cc(O)cc4ccccc24)C3)[C@@H](C)C1 [Example 116, (S)-1-(4-(2-(2-(dimethylamino)ethoxy)-7-(3-hydroxynaphthalen-1-yl)-5,6,7,8-tetrahydropyrido[3,4-d]pyrimidin-4-yl)-3-methylpiperazin-1-yl)prop-2-en-1-one]",0.1 to 1000,–
C (“C”>50% POC),"C=CC(=O)N1CCN(c2nc(OCCN3CCOCC3)nc3c2CCN(c2cc(O)cc4ccccc24)C3)CC1 [Example 117, 1-(4-(7-(3-hydroxynaphthalen-1-yl)-2-(2-morpholinoethoxy)-5,6,7,8-tetrahydropyrido[3,4-d]pyrimidin-4-yl)piperazin-1-yl)prop-2-en-1-one]",> 1000,–
A (“A”≤25% POC),"C=CC(=O)N1CCN(c2nc(N3CCOCC3)nc3c2CCN(c2cc(O)cc4ccccc24)C3)CC1 [Example 118, 1-(4-(7-(3-hydroxynaphthalen-1-yl)-2-morpholino-5,6,7,8-tetrahydropyrido[3,4-d]pyrimidin-4-yl)piperazin-1-yl)prop-2-en-1-one]",> 1000,–
B (“B”>25% POC−≤50% POC),"C=CC(=O)N1CCN(c2nc(N3CCCC3)nc3c2CCN(c2cc(O)cc4ccccc24)C3)CC1 [Example 119, 1-(4-(7-(3-hydroxynaphthalen-1-yl)-2-(pyrrolidin-1-yl)-5,6,7,8-tetrahydropyrido[3,4-d]pyrimidin-4-yl)piperazin-1-yl)prop-2-en-1-one]",> 1000,–
C (“C”>50% POC),"C=CC(=O)N1CCN(c2nc(O[C@H](C)CN3CCCC3)nc3c2CCN(c2cc(O)cc4ccccc24)C3)CC1 [Example 120, (R)-1-(4-(7-(3-hydroxynaphthalen-1-yl)-2-((1-(pyrrolidin-1-yl)propan-2-yl)oxy)-5,6,7,8-tetrahydropyrido[3,4-d]pyrimidin-4-yl)piperazin-1-yl)prop-2-en-1-one]",0.1 to 1000,–
